Experimental data taken from patent publication EP0133934A2, “Pharmacologically active 1,3,4-thiadiazol-(3,2-a)-thieno-(2,3-d)-pyrimidin-5-(H)one derivatives” (NIKEPHARMA S.r.l., priority 1983, dated 1985).

Columns and labels:
[1] = test system: phenylbenzoquinone writhing test; experiment: Phenylbenzoquinone writhing test in the mouse (ED50 and duration of effect); type: in vivo; conditions: for % INHI-BITION / N° OF WRITHES IN 10' ml ± E.S.: Table 6, oral, one hour before the test; for N° OF WRITHES IN 10' ml ± E.S.: controls 52.4 ± 1.69; for % INHIBITION / Nº OF WRITHES IN 10' ml ± E.S.: Table 7, oral 1 mg/kg; for Nº OF WRITHES IN 10' ml ± E.S.: controls 53.2 ± 1.26
Experimental: The analgesic effect was determined by the number of writhes of the abdomen recorded during 10 minutes (from 5 to 15 minutes after the phenylbenzo quinone injection).

acetic acid peritonitis = experiment: Anti-exudative activity: acetic acid peritonitis in the rat; type: in vivo; conditions: for EXUDATE VOLUME ml ± E.S.: controls 2.58 ± 0.18
Experimental: The test was carried out according to the procedure described by Arrigoni-Martelli (Boll.Chim. Far. 107, 29, 1968). This method is based upon the evaluation of the anti-exudative effect of a drug at the peritoneal level, following a intraperitoneal injection of 10 ml/kg of a 0.5% acetic acid solution.
The compounds under test were administered oral ly one hour before the inflammatory agent; 30 minutes after the treatment the animals were killed and the fluid from the peritoneal cavity was drawn and measured.
The test compounds were administered by oral route 1 hour before intraperitoneal injection of acetic acid (10 ml/kg of a 0.5% solution).
The anti-exudative activity was determined on the basis of the peritoneal exudate of the treated animals, in comparison with the controls.

carrageenin oedema = experiment: Antiinflammatory activity: carrageenin oedema in the rat; type: in vivo; conditions: po, 4 h, read-out: OEDEMA INHIBITION % at the fourth hour
Experimental: (§1) The activity tests were carried out on male Spra gue-Dawley rats weighing 200+20 g and on male Swiss mice weighing 26+3 g.
(§2) The test compounds were administered orally by means of gastroesophageal tube, in the form of a suspen sion in a 10 ml/kg mucilage of 5% gum arabic; and intraperitoneally in the form of an aqueous suspen sion added with a few drops of Tween 80, in the con stant volume of 10 ml/kg.
The compounds under test and the control ones were administered orally one hour before the injection of 0.1 ml of 1% carrageenin in the right paw of the animals.
The volume of the paw was measured by means of a plethysmograph immediately before the injection and 2, 4 and 6 hours after.
The results were expressed as percentage inhibi tion of the oedema in the treated animals in comparison with the control animals, at the time of the maximum oedema development (fourth hour after the carrageenin injection).

[2] = test system: Writhing test induced by phenyl-benzoquinone; experiment: Phenylbenzoquinone writhing test in the rat; type: in vivo; conditions: Rattus norvegicus, po, 10 min, read-out: % INHIBI-TION
Experimental: as §1, §2

Carrageenin pleuritis = Carrageenin pleuritis in the rat; type: in vivo; conditions: for EXUDATE VOLUME: 30 min. before carrageenin and 6 hours after, exudate at 18 hours, controls 2.76 ± 0.38
Experimental: Compound HA-34 was tested for the protective activity against the exudative pleuritis reaction induced by carrageenin. HA-34 was administered 30 min. before the injection of carrageenin, and 6 hours after it. The experiment was carried out on male Spra- gue-Dawley rats, anestethized with ethyl urethane, which were subjected, in their right pleural cavity, to injection of 1.5 ml of air and then 0.1 ml of a 1% carrageenin solution, in sterile normal saline, according to the procedure by Van Armann et al. (J. Pharmac. Exp. Ther., 150, 328, 1965). Indometha cin and Piroxicam were employed as the control drugs, under the same conditions. 18 Hours after the intrapleuric carrageenin injec tion, the animals were killed by means of ether inhalation, and the pleuric exudate was collected and measured.

gastric ulceration = type: in vivo, rat; conditions: os
Experimental: To rats fasted for 18 hours, with water ad libitum, were administered the compounds under test at "0" time and after 2 hours. Control rats were treated with established anti-inflammatory agents.
6 Hours after the beginning of the test, the animals were killed by ether inhalation.
Gastric ulceration was assessed on the ground of values ranging from 0 to 4: • 0 = no ulceration; • 1 = slight iperhaemia and/or a few ulcers; • 2 = severe iperhaemia and many punctiform ulcers; • 3 = severe submucosal hemorrage, one large ulcer and many punctiform ulcers; • 4 severe submucosal hemorrage and many large ulcers.
The ulcerogenic index was measured by the following formula (Lwoff. J.M., J. Pharmacol., 2, 81, 1971): [formula]

[3] = 30 min. before phenylbenzoquinone

COc1ccc2c(c1)c(CC(=O)O)c(C)n2C(=O)c1ccc(Cl)cc1 [INDO, Indomethacin]
ED50 ([1]; Mus musculus, po, 1 h): 0.5 mg/kg
% INHI-BITION ([1]; 0.1 mg/kg): 22.9%
N° OF WRITHES IN 10' ml ± E.S. ([1]; 0.1 mg/kg): 40.4 ± 2.46
% INHI-BITION ([1]; 0.5 mg/kg): 48.1%
N° OF WRITHES IN 10' ml ± E.S. ([1]; 0.5 mg/kg): 27.2 ± 1.48
% INHI-BITION ([1]; 1 mg/kg): 87.0%
N° OF WRITHES IN 10' ml ± E.S. ([1]; 1 mg/kg): 6.8 ± 0.76
% INHI-BITION ([1]; 5 mg/kg): 91.4%
N° OF WRITHES IN 10' ml ± E.S. ([1]; 5 mg/kg): 4.5 ± 0.65
% INHIBITION [1, 3]: 85.5%
Nº OF WRITHES IN 10' ml ± E.S. [1, 3]: 7.7 ± 1.18
% INHIBITION ([1]; 1 h before phenylbenzoquinone): 87.8%
Nº OF WRITHES IN 10' ml ± E.S. ([1]; 1 h before phenylbenzoquinone): 6.5 ± 0.86
% INHIBITION ([1]; 3 h before phenylbenzoquinone): 88.3%
Nº OF WRITHES IN 10' ml ± E.S. ([1]; 3 h before phenylbenzoquinone): 6.2 ± 0.70
% INHIBITION ([1]; 4 h before phenylbenzoquinone): 87.2%
Nº OF WRITHES IN 10' ml ± E.S. ([1]; 4 h before phenylbenzoquinone): 6.8 ± 0.64
% INHIBITION ([1]; 6 h before phenylbenzoquinone): 80.4%
Nº OF WRITHES IN 10' ml ± E.S. ([1]; 6 h before phenylbenzoquinone): 10.4 ± 0.56
% INHIBITION ([1]; 8 h before phenylbenzoquinone): 60.3%
Nº OF WRITHES IN 10' ml ± E.S. ([1]; 8 h before phenylbenzoquinone): 21.2 ± 1.26
% INHIBITION ([1]; 24 h before phenylbenzoquinone): 53.4%
Nº OF WRITHES IN 10' ml ± E.S. ([1]; 24 h before phenylbenzoquinone): 24.8 ± 1.15
% INHIBITION ([1]; 32 h before phenylbenzoquinone): 25.9%
Nº OF WRITHES IN 10' ml ± E.S. ([1]; 32 h before phenylbenzoquinone): 39.4 ± 1.36
inhibition in vivo at 1 mg/kg (acetic acid peritonitis; Rattus norvegicus, po, Table 4, os, 1 mg/kg): 74%
inhibition in vivo at 10 mg/kg (acetic acid peritonitis; Rattus norvegicus, po, Table 4, os, 10 mg/kg): 93%
inhibition in vivo at 0.1 mg/kg (acetic acid peritonitis; Rattus norvegicus, po, Table 8, oral, 0.1 mg/kg): 37.2%
inhibition in vivo at 0.5 mg/kg (acetic acid peritonitis; Rattus norvegicus, po, Table 8, oral, 0.5 mg/kg): 53%
inhibition in vivo at 1 mg/kg (acetic acid peritonitis; Rattus norvegicus, po, Table 8, oral, 1 mg/kg): 72.8%
inhibition in vivo at 10 mg/kg (acetic acid peritonitis; Rattus norvegicus, po, Table 8, oral, 10 mg/kg): 94.8%
ED50 (acetic acid peritonitis; Rattus norvegicus, oral administration 1 hour before i.p. acetic acid): 0.3 mg/kg
EXUDATE VOLUME ml ± E.S. (acetic acid peritonitis; Table 8, oral, 0.1 mg/kg, 1 hour before acetic acid): 1.62 ± 0.09 mL
EXUDATE VOLUME ml ± E.S. (acetic acid peritonitis; Table 8, oral, 0.5 mg/kg): 1.21 ± 0.07 mL
EXUDATE VOLUME ml ± E.S. (acetic acid peritonitis; Table 8, oral, 1 mg/kg): 0.70 ± 0.09 mL
EXUDATE VOLUME ml ± E.S. (acetic acid peritonitis; Table 8, oral, 10 mg/kg): 0.13 ± 0.04 mL
inhibition in vivo at 10 mg/kg (carrageenin oedema): 57.3 ± 0.85%
inhibition in vivo at 0.5 mg/kg [2]: 49%
inhibition in vivo at 5 mg/kg [2]: 87%
% INHIBITION (Carrageenin pleuritis; 5 mg/kg): 51.8%
EXUDATE VOLUME (Carrageenin pleuritis; 5 mg/kg): 1.33 ± 0.34
% INHIBITION (Carrageenin pleuritis; 10 mg/kg): 72.4%
EXUDATE VOLUME (Carrageenin pleuritis; 10 mg/kg): 0.76 ± 0.20
ULCERA-TION INDEX (gastric ulceration): 250
% ANIMALS WITH ULCERS (gastric ulceration; 20 mg/kg): 100%
ULCERA-TION DEGREE (gastric ulceration; 20 mg/kg, scale 0 to 4): 2.5
